From patent US9783536B2, “Nitrogen-containing heterocyclic compound or salt thereof” (FUJIFILM Corporation, priority 2013, dated 2017)
Where a name gives a salt, the structure may show the parent alone. Read-outs that look alike come from different tables or passages of the source.

Experiments:
human PI3Kα protein = target: T1, human PI3Kα protein (Homo sapiens, UniProt P42336); assay: PI3Kα enzyme assay (ADP-Glo); assay type: biochemical; conditions: read-out: PI3Kα enzyme inhibitory activity
T1 construct: purchased Carna Biosciences, Inc; host or cells: baculovirus expression system
Outline: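 Biotinylated human PI3Kα (baculovirus-expressed, 4.5 nmol/L) pre-incubated 15 min with compound in Tris-HCl pH 7.5, MgCl2, BSA; reaction 60 min at 25° C with 50 μmol/L PIP2 and 100 μmol/L ATP final. ADP quantified by ADP-Glo luminescence; IC50 calculated.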

[1] = target: T2, GST fusion human ERK2 protein (Homo sapiens, UniProt P28482); assay: ERK2 enzyme assay (2); assay type: biochemical; conditions: read-out: ERK2 enzyme inhibitory activity (2)
T2 construct: purchased Carna Biosciences, Inc; host or cells: E. coli expression system
Outline: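 IC50 values come from mobility-shift measurement of phosphorylated versus unphosphorylated 5-FAM peptide substrate after EDTA quench. Beforehand, compound and 1.25 nmol/L E. coli-expressed GST–human ERK2 stood 15 min at room temperature (pH 7.5), then 1 mmol/L ATP and 4.25 μmol/L substrate (final) were added for 120 min at 25 °C.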

T2 sequence (P28482 whole entry, the tested form may be a part): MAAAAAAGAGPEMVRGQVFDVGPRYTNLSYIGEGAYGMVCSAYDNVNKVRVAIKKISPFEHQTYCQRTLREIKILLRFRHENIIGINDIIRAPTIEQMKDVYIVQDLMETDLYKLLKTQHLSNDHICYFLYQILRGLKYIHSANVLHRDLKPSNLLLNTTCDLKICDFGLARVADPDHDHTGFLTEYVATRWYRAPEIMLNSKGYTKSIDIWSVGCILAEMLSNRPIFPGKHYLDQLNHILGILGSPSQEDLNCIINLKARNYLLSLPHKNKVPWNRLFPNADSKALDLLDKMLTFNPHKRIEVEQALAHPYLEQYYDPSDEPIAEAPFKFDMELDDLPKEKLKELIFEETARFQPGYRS
T1 sequence (P42336 whole entry): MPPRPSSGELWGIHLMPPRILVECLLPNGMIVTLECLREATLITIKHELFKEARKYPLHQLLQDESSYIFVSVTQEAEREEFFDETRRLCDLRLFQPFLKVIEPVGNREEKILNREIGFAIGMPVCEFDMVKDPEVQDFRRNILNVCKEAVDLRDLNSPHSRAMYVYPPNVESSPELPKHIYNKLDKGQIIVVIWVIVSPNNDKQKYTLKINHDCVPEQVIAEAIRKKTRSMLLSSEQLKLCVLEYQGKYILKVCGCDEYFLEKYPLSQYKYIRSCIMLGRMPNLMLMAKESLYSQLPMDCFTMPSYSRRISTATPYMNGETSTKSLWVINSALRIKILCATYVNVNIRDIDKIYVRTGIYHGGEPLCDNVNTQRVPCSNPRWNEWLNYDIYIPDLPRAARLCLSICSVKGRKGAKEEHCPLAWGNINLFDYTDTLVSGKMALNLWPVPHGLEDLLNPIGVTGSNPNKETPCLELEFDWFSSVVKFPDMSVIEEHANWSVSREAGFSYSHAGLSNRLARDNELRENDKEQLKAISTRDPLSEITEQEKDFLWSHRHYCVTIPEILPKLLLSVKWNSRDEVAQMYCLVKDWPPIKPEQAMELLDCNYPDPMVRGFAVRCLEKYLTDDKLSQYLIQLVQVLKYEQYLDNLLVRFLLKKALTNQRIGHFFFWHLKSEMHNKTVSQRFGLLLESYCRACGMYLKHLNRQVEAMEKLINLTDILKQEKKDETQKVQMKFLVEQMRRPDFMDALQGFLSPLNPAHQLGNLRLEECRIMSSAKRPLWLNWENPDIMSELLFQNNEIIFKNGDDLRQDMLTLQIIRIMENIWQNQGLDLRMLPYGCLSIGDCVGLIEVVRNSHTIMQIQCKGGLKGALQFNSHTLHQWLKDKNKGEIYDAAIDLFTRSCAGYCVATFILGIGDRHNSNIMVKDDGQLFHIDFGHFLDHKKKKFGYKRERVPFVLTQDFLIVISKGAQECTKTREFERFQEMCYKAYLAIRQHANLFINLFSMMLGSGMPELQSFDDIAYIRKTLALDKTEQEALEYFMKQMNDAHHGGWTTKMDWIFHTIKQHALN
T1 sequence (P27986 whole entry partner): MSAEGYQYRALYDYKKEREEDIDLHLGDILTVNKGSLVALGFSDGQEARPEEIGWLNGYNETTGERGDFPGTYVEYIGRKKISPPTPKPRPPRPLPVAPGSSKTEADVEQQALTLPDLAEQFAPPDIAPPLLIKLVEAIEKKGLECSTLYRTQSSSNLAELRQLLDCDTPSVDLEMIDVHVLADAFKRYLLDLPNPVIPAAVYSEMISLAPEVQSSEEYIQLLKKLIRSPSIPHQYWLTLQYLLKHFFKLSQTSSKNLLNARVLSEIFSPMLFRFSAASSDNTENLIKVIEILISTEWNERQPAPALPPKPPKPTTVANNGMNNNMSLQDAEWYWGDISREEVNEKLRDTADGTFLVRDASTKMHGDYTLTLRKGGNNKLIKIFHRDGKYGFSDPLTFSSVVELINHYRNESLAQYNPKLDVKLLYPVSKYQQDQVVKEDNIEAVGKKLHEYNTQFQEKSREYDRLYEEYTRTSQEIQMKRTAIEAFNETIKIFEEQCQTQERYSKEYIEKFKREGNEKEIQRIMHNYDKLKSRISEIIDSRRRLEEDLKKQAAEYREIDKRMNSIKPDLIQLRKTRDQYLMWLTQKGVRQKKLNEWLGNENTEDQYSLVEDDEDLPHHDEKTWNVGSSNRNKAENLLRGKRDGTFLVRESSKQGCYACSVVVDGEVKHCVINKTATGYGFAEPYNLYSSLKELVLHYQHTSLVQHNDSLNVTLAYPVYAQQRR

| Compound | IC50 (human PI3Kα protein) | IC50 ([1]; ERK2 enzyme assay (2)) | IC50 [1] |
| --- | --- | --- | --- |
| COCCOC(CN1CCOCC1)Cn1cc(-c2cnc3ccc(Nc4cc(C(C)C)cnn4)nc3c2)cn1 (stereo not shown) [Example 0744] | < 1000 nM | < 1000 nM |  |
| CC(C)c1cnnc(Nc2ccc3ncc(-c4ccnc(N)n4)cc3n2)c1 [Example 0766] | < 1000 nM | < 1000 nM |  |
| CC(C)c1cnnc(Nc2ccc3ncc(-c4cnn(CCOC5CN(C(C)C)C5)c4)cc3n2)c1 [Example 0742] | < 1000 nM | < 1000 nM |  |
| CC(C)c1cnnc(Nc2ccc3ncc(-c4cnn(C5CCN(CCO)CC5)c4)cc3n2)c1 [Example 0480, 2-(4-(4-(6-((5-Isopropylpyridazin-3-yl)amino)-1,5-naphthyridin-3-yl)-1H-pyrazol-1-yl)piperidin-1-yl)ethanol] | < 1000 nM | < 1000 nM |  |
| CC(C)c1cnnc(Nc2ccc3ncc(-n4cnc(CCN)c4)cc3n2)c1 [Example 0506, Hydrochloric acid salt of 7-(4-(2-aminoethyl)-1H-imidazol-1-yl)-N-(5-isopropylpyridazin-3-yl)-1,5-naphthyridine-2-amine] | 1000 to 10000 nM | < 1000 nM |  |
| CCN(CCO[Si](C)(C)C(C)(C)C)c1cnnc(Nc2ccc3ncc(-c4cnn(C)c4)cc3n2)c1 [Example 0524] | 10000 to 50000 nM | < 1000 nM |  |
| CC(C)c1cnnc(Nc2ccc3ncc(-c4cnn(CCCN5CC(OCC(F)F)C5)c4)cc3n2)c1 [Example 0714] | < 1000 nM | < 1000 nM |  |
| CC(C)Cc1cnnc(Nc2ccc3ncc(-c4cnn(C)c4)cc3n2)c1 [Example 0571] | < 1000 nM | < 1000 nM |  |
| CCCOC1CN(CCCn2cc(-c3cnc4ccc(Nc5cc(C(C)C)cnn5)nc4c3)cn2)C1 [Example 0706] | < 1000 nM | < 1000 nM |  |
| CO[C@H]1CC[C@H](Cn2cc(-c3cnc4ccc(Nc5cc(C(C)C)cnn5)nc4c3)cn2)CC1 [Example 0522, N-(5-isopropylpyridazin-3-yl)-7-(1-(((1r,4r)-4-methoxycyclohexyl)methyl)-1H-pyrazol-4-yl)-1,5-naphthyridine-2-amine] | < 1000 nM | < 1000 nM |  |
| CC(C)c1cnnc(Nc2ccc3ncc(/C=C/c4ccncc4)cc3n2)c1 [Example 0652, (E)-N-(5-isopropylpyridazin-3-yl)-7-(2-(pyridin-4-yl)vinyl)-1,5-naphthyridine-2-amine] | < 1000 nM | < 1000 nM |  |
| COc1cncc(-c2nn(C)cc2-c2cnc3ccc(Nc4cc(C(C)C)cnn4)nc3c2)c1 [Example 0451] | < 1000 nM | < 1000 nM |  |
| CC(C)c1cnnc(Nc2ccc3ncc(-c4cnn(CC5CCCCC5)c4)cc3n2)c1 [Example 0519, 7-(1-(Cyclohexylmethyl)-1H-pyrazol-4-yl)-N-(5-isopropylpyridazin-3-yl)-1,5-naphthyridine-2-amine] | 1000 to 10000 nM | < 1000 nM |  |
| Cc1cncc(-c2cnc3ccc(Nc4cc(C(C)C)cnn4)nc3c2)c1 [Example 0598] | 1000 to 10000 nM | < 1000 nM |  |
| CC(C)c1cnnc(Nc2ccc3ncc(-c4cnn(CCCN5CCC(F)(F)CC5)c4)cc3n2)c1 [Example 0419, 7-(1-(3-(4,4-Difluoropiperidin-1-yl)propyl)-1H-pyrazol-4-yl)-N-(5-isopropylpyridazin-3-yl)-1,5-naphthyridine-2-amine] | < 1000 nM | < 1000 nM |  |
| CC(C)c1cnnc(Nc2ccc3ncc(-c4cnn(Cc5ccc([N+](=O)[O-])cc5)c4)cc3n2)c1 [Example 0716] | < 1000 nM | < 1000 nM |  |
| CC(C)c1cnnc(Nc2ccc3ncc(-c4cnn(CCCN5CCOCC5C)c4)cc3n2)c1 (stereo not shown) [Example 0607, N-(5-isopropylpyridazin-3-yl)-7-(1-(3-(3-methylmorpholino)propyl)-1H-pyrazol-4-yl)-1,5-naphthyridine-2-amine] | < 1000 nM | < 1000 nM |  |
| CC(C)c1cnnc(Nc2ccc3ncc(-c4cnn(CCCN5CC(OCC6CC6)C5)c4)cc3n2)c1 [Example 0709] | < 1000 nM | < 1000 nM |  |
| CCCCOC1CN(CCCn2cc(-c3cnc4ccc(Nc5cc(C(C)C)cnn5)nc4c3)cn2)C1 [Example 0707] | < 1000 nM | < 1000 nM |  |
| CC(C)c1cnnc(Nc2ccc3ncc(-c4cn(C)nc4C4CCOCC4)cc3n2)c1 [Example 0772] | < 1000 nM | < 1000 nM |  |
| CC(C)c1cnnc(Nc2ccc3ncc(-c4cnn(CCOC5CN(CC(F)F)C5)c4)cc3n2)c1 [Example 0747, 7-(1-(2-((1-(2,2-difluoroethyl)azetidin-3-yl)oxy)ethyl)-1H-pyrazol-4-yl)-N-(5-isopropylpyridazin-3-yl)-1,5-naphthyridine-2-amine] | < 1000 nM | < 1000 nM |  |
| CC(C)c1cnnc(Nc2ccc3ncc(-c4cnn(CCCN5CC[C@@H](F)C5)c4)cc3n2)c1 [Example 0429] | < 1000 nM | < 1000 nM |  |
| CC(C)c1cnnc(Nc2ccc3ncc(-c4cnn(CC5CCN(C(=O)N(C)C)CC5)c4)cc3n2)c1 [Example 0529] | < 1000 nM | < 1000 nM |  |
| Cc1n[nH]cc1-c1cnc2ccc(Nc3cc(C(C)C)cnn3)nc2c1 [Example 0719, N-(5-isopropylpyridazin-3-yl)-7-(3-methyl-1H-pyrazol-4-yl)-1,5-naphthyridine-2-amine] | < 1000 nM | < 1000 nM |  |
| CC(=O)N1CCC(Cn2cc(-c3cnc4ccc(Nc5cc(C(C)C)cnn5)nc4c3)cn2)CC1 [Example 0528, 1-(4-((4-(6-((5-Isopropylpyridazin-3-yl)amino)-1,5-naphthyridin-3-yl)-1H-pyrazol-1-yl)methyl)piperidin-1-yl)ethanone] | < 1000 nM | < 1000 nM |  |
| CC(C)c1cnnc(Nc2ccc3ncc(-c4cnn(CC5CN(C)CCO5)c4)cc3n2)c1 (stereo not shown) [Example 0728, N-(5-isopropylpyridazin-3-yl)-7-(1-((4-methylmorpholin-2-yl)methyl)-1H-pyrazol-4-yl)-1,5-naphthyridine-2-amine] | < 1000 nM | < 1000 nM |  |
| COc1cccc(Cn2cc(-c3cnc4ccc(Nc5cc(C(C)C)cnn5)nc4c3)cn2)n1 [Example 0412, N-(5-isopropylpyridazin-3-yl)-7-(1-((6-methoxypyridin-2-yl)methyl)-1H-pyrazol-4-yl)-1,5-naphthyridine-2-amine] | < 1000 nM | < 1000 nM |  |

Further lines, results first:

| IC50 (human PI3Kα protein) | IC50 ([1]; ERK2 enzyme assay (2)) | IC50 [1] | Compound |
| --- | --- | --- | --- |
| < 1000 nM |  | < 1000 nM | COCc1cnnc(Nc2ccc3ncc(-c4cn(C)nc4C)cc3n2)c1 [Example 0923] |
| 1000 to 10000 nM | < 1000 nM |  | Cc1nc2ccc(Nc3cc(C(C)C)cnn3)nc2cc1-c1cn(C)nc1C [Example 0851, 7-(1,3-Dimethyl-1H-pyrazol-4-yl)-N-(5-isopropylpyridazin-3-yl)-6-methyl-1,5-naphthyridine-2-amine] |
| 1000 to 10000 nM | < 1000 nM |  | CC(C)c1cnnc(Nc2ccc3ncc(N4CC(OCC(F)F)C4)cc3n2)c1 [Example 0868] |
| < 1000 nM | 1000 to 10000 nM |  | CC(C)c1cnnc(Nc2ccc3ncc(NC4CCCCC4)cc3n2)c1 [Example 0877] |
| < 1000 nM | < 1000 nM |  | COc1ccc(OCc2nn(C)cc2-c2cnc3ccc(Nc4cc(C(C)C)cnn4)nc3c2)cc1 [Example 0806] |
| < 1000 nM | < 1000 nM |  | CC(C)c1cnnc(Nc2ccc3ncc(-c4cn(C)nc4-c4ccc(OCC(=O)N(C)C)cc4)cc3n2)c1 [Example 0777, 2-(4-(4-(6-((5-Isopropylpyridazin-3-yl)amino)-1,5-naphthyridin-3-yl)-1-methyl-1H-pyrazol-3-yl)phenoxy)-N,N-dimethylacetamide] |
| < 1000 nM | < 1000 nM |  | CCC(CC)c1cnnc(Nc2ccc3ncc(-c4cnn(CCOC5CN(C(C)C)C5)c4)cc3n2)c1 [Example 0818] |
| < 1000 nM | < 1000 nM |  | COC(=O)c1ccc(Cn2cc(-c3cnc4ccc(Nc5cc(C(C)C)cnn5)nc4c3)cn2)cc1 [Example 0792] |
| < 1000 nM |  | < 1000 nM | CC(C)c1cnnc(Nc2ccc3ncc(-c4cnn(C)c4)c(-c4cccnc4)c3n2)c1 [Example 0954, N-(5-isopropylpyridazin-3-yl)-7-(1-methyl-1H-pyrazol-4-yl)-8-(pyridin-3-yl)-1,5-naphthyridine-2-amine] |
| < 1000 nM | < 1000 nM |  | CC(C)c1cnnc(Nc2ccc3ncc(-c4cn(C)nc4-c4ccccn4)cc3n2)c1 [Example 0838, N-(5-isopropylpyridazin-3-yl)-7-(1-methyl-3-(pyridin-2-yl)-1H-pyrazol-4-yl)-1,5-naphthyridine-2-amine] |
| < 1000 nM | < 1000 nM |  | CC(C)c1cnnc(Nc2ccc3ncc(-c4cn(C)nc4Cc4ccccc4)cc3n2)c1 [Example 0828] |
| < 1000 nM |  | < 1000 nM | CC(C)c1cnnc(Nc2ccc3ncc(-c4cn(C)nc4CN4CCN(c5cccnc5)CC4)cc3n2)c1 [Example 0910] |
| < 1000 nM | 1000 to 10000 nM |  | CC(C)c1cnnc(Nc2ccc3ncc(-c4cn(C)nc4-c4ccc(N(C)C)nc4)cc3n2)c1 [Example 0793] |
| < 1000 nM |  | < 1000 nM | COc1c(-c2cnn(C)c2)cnc2ccc(Nc3cc(C(C)C)cnn3)nc12 [Example 0914, N-(5-isopropylpyridazin-3-yl)-8-methoxy-7-(1-methyl-1H-pyrazol-4-yl)-1,5-naphthyridine-2-amine] |
| < 1000 nM | < 1000 nM |  | C=C(C)c1cnnc(Nc2ccc3ncc(-c4cn(C)nc4C)cc3n2)c1 [Example 0785] |
| < 1000 nM |  | < 1000 nM | COCCNc1nn(C)cc1-c1cnc2ccc(Nc3cc(C(C)C)cnn3)nc2c1 [Example 0946] |
| < 1000 nM |  | < 1000 nM | CC(C)c1cnnc(Nc2ccc3ncc(-c4cn(C)nc4N4CCCC4)cc3n2)c1 [Example 0937] |
